# In patent US7700560B2 (University of Maryland, Baltimore County, priority 2003, dated 2010):
# Read-outs that look alike come from different tables or passages of the source.
# Assays:
# [1] = target: T1, human GlxI (Homo sapiens, UniProt Q04760); test: Irreversible inactivation kinetics of human GlxI; type: biochemical
# T1 construct: hGlxI from human erythrocytes; from tissue; host or cells: human erythrocytes
# T1 sequence (Q04760 2-184 limits assumed): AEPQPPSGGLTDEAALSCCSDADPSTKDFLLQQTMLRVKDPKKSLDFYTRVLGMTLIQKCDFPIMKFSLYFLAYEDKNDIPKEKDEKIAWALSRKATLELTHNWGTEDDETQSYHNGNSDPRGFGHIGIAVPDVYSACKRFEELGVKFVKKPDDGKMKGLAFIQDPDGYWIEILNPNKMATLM
# Method: Incubation mixtures of enzyme (10 units/ml) and known concentrations of inactivator in phosphate buffer were separately incubated in plastic bullet tubes maintained at 25° C. in a water bath. Aliquots were removed, diluted into a quartz cuvette containing one ml GSH-methylglyoxal-thiohemiacetal, and the rate of product formation (ΔOD (240)) monitored as a function of time. From the initial rate of product formation, the activity of the enzyme was calculated. The slope of a plot of in (fraction of enzyme activity remaining) versus time gives the apparent first-order rate constant (kinact) for inactivation of hGlxI. A plot of kinact versus inactivator concentration (FIG. 7.) gives the dissociation constant (Kd and the maximum value of kinact).
# [2] = system: DMS114 lung and DU145 prostate xenografts; conditions: cited from earlier work
# [3] = system: murine leukemia L1210 cells; conditions: cited from earlier work; for IC50: after 72 hours of incubation, diethyl ester prodrugs, read-out: IC50, growth of L1210 cells
# [4] = target: T2, bovine liver GlxII (Bos taurus, UniProt Q3B7M2); conditions: cited from earlier work
# T2 construct: yeast GlxI (yGlxI) and bovine liver GlxII (bGlXII); from tissue; host or cells: bovine liver
# [5] = system: human colon HT29 tumors; conditions: cited from earlier work
# [6] = system: human prostate PC3 tumors; conditions: cited from earlier work
# [7] = system: murine melanotic melanoma; conditions: cited from earlier work; for efficacy relative to positive control adriamycin: at much higher dosages than adriamycin
# [8] = target: T2, bovine liver GlxII; test: Competitive inhibition constants (Kis) with bovine liver GlxII; type: biochemical; conditions: sodium phosphate buffer, 50 mM, pH 7, 25° C.; mean (±S.D.) duplicate; read-out: Ki, bGlxII
# [9] = target: T1, human GlxI; test: Competitive inhibition constants (Kis) with human GlxI; type: biochemical; conditions: for binds more tightly to hGlxI than to yGlxI: ratio of Ki yGlxI / hGlxI
# Method: (§1) Competitive inhibition constants (Kis) of bivalent and monovalent enzyme inhibitors with human GlxI or yeast GlxI (yGlxI) were obtained from the change in the initial rates of product formation at various concentrations of the substrate in the presence or absence of the inhibitor. To a 1 ml cuvette containing 50 mM sodium phosphate buffer, pH 7.0, 0.5 mM EDTA, 25° C. and different concentrations of thiohemiacetal substrates with fixed concentrations of inhibitor was added approximately 0.02 U of enzyme. The initial rates of product formation were followed on the basis of the increase in absorbancy at 240 nm. Inhibition constants were obtained by fitting the initial rate data to the equation for competitive inhibition.
# [10] = target: T3, yeast GlxI (Saccharomyces cerevisiae, UniProt P50107); test: Competitive inhibition constants (Kis) with yeast GlxI; type: biochemical; conditions: sodium phosphate buffer, 50 mM, pH 7, 25° C.; mean (±S.D.) duplicate; read-out: Ki, yGlxI
# T3 sequence (P50107 1-326): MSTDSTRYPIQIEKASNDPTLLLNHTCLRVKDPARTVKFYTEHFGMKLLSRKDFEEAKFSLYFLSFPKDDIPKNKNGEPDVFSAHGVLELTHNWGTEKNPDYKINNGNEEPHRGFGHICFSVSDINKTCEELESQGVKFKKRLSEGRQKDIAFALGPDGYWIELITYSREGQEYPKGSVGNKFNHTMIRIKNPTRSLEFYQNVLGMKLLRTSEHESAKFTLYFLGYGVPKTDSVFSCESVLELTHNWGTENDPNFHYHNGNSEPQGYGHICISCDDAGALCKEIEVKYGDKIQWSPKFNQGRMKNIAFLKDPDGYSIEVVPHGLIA
# Method: as §1
# [11] = target: T4, human placental GSH transferase (Homo sapiens, UniProt P09211); test: Inhibition of human placental GSH transferase; type: biochemical; conditions: up to an inhibitor concentration of 20 μM
# T4 construct: human placental GSH transferase; from tissue; host or cells: human placenta
# T4 sequence (P09211 2-210 limits assumed): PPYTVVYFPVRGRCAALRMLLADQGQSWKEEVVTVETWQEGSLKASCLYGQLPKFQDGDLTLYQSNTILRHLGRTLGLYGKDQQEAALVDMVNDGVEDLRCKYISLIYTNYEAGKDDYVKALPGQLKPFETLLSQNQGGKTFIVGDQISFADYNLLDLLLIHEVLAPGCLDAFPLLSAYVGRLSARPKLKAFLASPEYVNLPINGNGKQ
# [12] = system: GSH peroxidase; test: Inhibition of GSH peroxidase; type: biochemical; conditions: up to an inhibitor concentration of 20 μM
# [13] = glycerol (20%) in sodium phosphate buffer, pH 7, 25° C.
# [14] = sodium phosphate buffer, 50 mM, pH 7, 25° C., mean (±S.D.) triplicate, read-out: Ki, hGlxI
compound,measurement,setting,value
N[C@@H](CCC(=O)N[C@@H](CSCC(=O)OCCCCOC(=O)CBr)C(=O)NCC(=O)O)C(=O)O,irreversible inactivation of human GlxI,[1]; [13],irreversibly inactivate human GlxI
same,kinact,[1]; [13],0.000267 s⁻¹
same,Kd,"[1]; glycerol (20%) in sodium phosphate buffer, pH 7, 25° C., fit of kobsd vs concentration, read-out: Kd (dissociation constant) for inactivation of human GlxI",177000 ± 43000 nM
"N[C@@H](CCC(=O)N[C@@H](CSCc1ccc(Br)cc1)C(=O)NCC(=O)O)C(=O)O [(S-p-bromobenzyl)glutathione (BBG), (S-p-bromobenzyl)glutathione]",efficacy against human lung tumors (DMS114) in mice,[2]; dosages of 100 mg/kg,effective
same,adverse side effects,"[2]; during the 21 days of administration, 100 mg/kg",no evidence of adverse side effects
CCOC(=O)CNC(=O)C(CSC(=O)N(O)c1ccc(Br)cc1)NC(=O)CCC(N)C(=O)OCC (stereo not drawn) [BHG(Et)2],IC50,[3],16000 nM
"N[C@@H](CCC(=O)N[C@@H](CSC(=O)N(O)c1ccc(Br)cc1)C(=O)NCC(=O)O)C(=O)O [BHG, S—(N-p-bromophenyl-N-hydroxy-carbamoyl)glutathione]",substrate for bovine liver GlxII,[4],substrates for bovine liver GlxII
CCOC(=O)CNC(=O)[C@H](CSC(=O)N(O)c1ccc(Cl)cc1)NC(=O)CC[C@H](N)C(=O)OCC [CHG(Et)2],toxicity to L1210 cells versus normal splenic lymphocytes in culture,[3]; Kavarana et al 1999,significantly more toxic to murine leukemia L1210 cells than to normal splenic lymphocytes
same,IC50,[3],5000 nM
same,efficacy against HT29 tumors,[5]; bolus administration,efficacy was not observed
same,potency relative to positive control vincristin,[5]; continuous i.v. infusion,as good as the positive control vincristin
same,side-effects,[5]; continuous i.v. infusion,without any detectable side-effects
same,haemopoetic toxicity,[6]; PC3 tumor-bearing mice,without the cisplatin-associated haemopoetic toxicity
same,growth of PC3 tumors,[6]; bolus i.v. administration,inhibited the growth
same,potency relative to positive control cisplatin,[6]; bolus i.v. administration,as good as the positive control cisplatin
same,effect on PC3 tumors,[6]; continuous infusion over 12 days,no effect was observed
same,efficacy relative to positive control adriamycin,[7],as effective as the positive control adriamycin
same,accumulation of drug in melanoma,[7]; following i.v. bolus administration,significant accumulation of drug in melanoma
NC(CCC(=O)NC(CSC(=O)N(O)c1ccc(Cl)cc1)C(=O)NCC(=O)OC1CCCC1)C(=O)OC1CCCC1 (stereo not drawn) [CHG(cyclopentyl)2],efficacy relative to positive control adriamycin,[7],as effective as the positive control adriamycin
"NCCC(=O)NC(CCC(=O)NC(CSC(=O)N(O)c1ccc(Cl)cc1)C(=O)NCC(=O)O)C(=O)O (stereo not drawn) [CHG(β-Ala)n, n = 1]",Ki,[8],1200 ± 12 nM
same,Ki,[9]; [14],330 ± 6 nM
"N[C@@H](CCC(=O)N[C@@H](CSC(=O)N(O)c1ccc(Cl)cc1)C(=O)NCC(=O)O)C(=O)O [CHG, S—(N-p-chlorophenyl-N-hydroxycarbamoyl)glutathione, reference compound]",substrate for bovine liver GlxII,[4],substrates for bovine liver GlxII
same,binds more tightly to hGlxI than to yGlxI,[9],78 fold
same,protection of the enzyme from inactivation by BPG/BBG,[1]; reversible inhibitor present,protects the enzyme from inactivation
CCOC(=O)CNC(=O)C(CSC(=O)N(O)c1ccccc1)NC(=O)CCC(N)C(=O)OCC (stereo not drawn) [PHG(Et)2],IC50,[3],63000 nM
CN(O)C(=O)SC[C@H](NC(=O)CC[C@H](N)C(=O)O)C(=O)NCC(=O)O [S—(N-methyl-N-hydroxycarbamoyl)glutathione],substrate for bovine liver GlxII,[4],substrates for bovine liver GlxII
N[C@@H](CCC(=O)N[C@@H](CSC(=O)N(O)c1ccccc1)C(=O)NCC(=O)O)C(=O)O [S—(N-phenyl-N-hydroxycarbamoyl)glutathione],substrate for bovine liver GlxII,[4],substrates for bovine liver GlxII
"O=C(O)CNC(=O)[C@H](CSC(=O)N(O)c1ccc(Cl)cc1)NC(=O)CC[C@H](NC(=O)CCNC(=O)CCCCCCC(=O)NCCC(=O)N[C@@H](CCC(=O)N[C@@H](CSC(=O)N(O)c1ccc(Cl)cc1)C(=O)NCC(=O)O)C(=O)O)C(=O)O [[CHG(β-Ala)n]2sub., n = 1, [CHG(β-ala)]2Suberate Diamide]",Ki,[10],3000 ± 200 nM
same,Ki,[8],35 ± 4 nM
same,Ki,[9]; [14],70.1 ± 1.3 nM
"O=C(O)CNC(=O)C(CSC(=O)N(O)c1ccc(Cl)cc1)NC(=O)CCC(NC(=O)CCNC(=O)CCNC(=O)CCCCCCC(=O)NCCC(=O)NCCC(=O)NC(CCC(=O)NC(CSC(=O)N(O)c1ccc(Cl)cc1)C(=O)NCC(=O)O)C(=O)O)C(=O)O (stereo not drawn) [[CHG(β-Ala)n]2sub., n = 2, [CHG(β-ala)2]2suberate diamide]",Ki,[8],50 ± 5 nM
same,Ki,[9]; [14],75.9 ± 7.4 nM
"O=C(O)CNC(=O)C(CSC(=O)N(O)c1ccc(Cl)cc1)NC(=O)CCC(NC(=O)CCNC(=O)CCNC(=O)CCNC(=O)CCCCCCC(=O)NCCC(=O)NCCC(=O)NCCC(=O)NC(CCC(=O)NC(CSC(=O)N(O)c1ccc(Cl)cc1)C(=O)NCC(=O)O)C(=O)O)C(=O)O (stereo not drawn) [[CHG(β-Ala)n]2sub., n = 3, [CHG(β-ala)3]2suberate diamide]",Ki,[9]; [14],84.1 ± 2.4 nM
"O=C(O)CNC(=O)C(CSC(=O)N(O)c1ccc(Cl)cc1)NC(=O)CCC(NC(=O)CCNC(=O)CCNC(=O)CCNC(=O)CCNC(=O)CCCCCCC(=O)NCCC(=O)NCCC(=O)NCCC(=O)NCCC(=O)NC(CCC(=O)NC(CSC(=O)N(O)c1ccc(Cl)cc1)C(=O)NCC(=O)O)C(=O)O)C(=O)O (stereo not drawn) [[CHG(β-Ala)n]2sub., n = 4, [CHG (β-ala)4]2suberate diamide]",Ki,[10],9000 ± 300 nM
same,Ki,[9]; [14],59.6 ± 2 nM
"O=C(O)CNC(=O)C(CSC(=O)N(O)c1ccc(Cl)cc1)NC(=O)CCC(NC(=O)CCNC(=O)CCNC(=O)CCNC(=O)CCNC(=O)CCNC(=O)CCCCCCC(=O)NCCC(=O)NCCC(=O)NCCC(=O)NCCC(=O)NCCC(=O)NC(CCC(=O)NC(CSC(=O)N(O)c1ccc(Cl)cc1)C(=O)NCC(=O)O)C(=O)O)C(=O)O (stereo not drawn) [[CHG(β-Ala)n]2sub., n = 5, [CHG (β-ala)5]2suberate diamide]",Ki,[9]; [14],7.5 ± 0.5 nM
"O=C(O)CNC(=O)[C@H](CSC(=O)N(O)c1ccc(Cl)cc1)NC(=O)CC[C@H](NC(=O)CCNC(=O)CCNC(=O)CCNC(=O)CCNC(=O)CCNC(=O)CCNC(=O)CCCCCCC(=O)NCCC(=O)NCCC(=O)NCCC(=O)NCCC(=O)NCCC(=O)NCCC(=O)N[C@@H](CCC(=O)N[C@@H](CSC(=O)N(O)c1ccc(Cl)cc1)C(=O)NCC(=O)O)C(=O)O)C(=O)O [[CHG(β-Ala)n]2sub., n = 6, [CHG (β-ala)6]2suberate diamide]",Ki,[10],7200 ± 100 nM
same,Ki,[8],142 ± 1 nM
same,mode of inhibition of hGlxI,"[9]; hGlxI from human erythrocytes, reciprocal plot FIG. 4",competitive inhibitor
same,binding selectivity hGlxI versus bGlxII,[9]; ratio of Ki bGlxII / hGlxI,148 fold
same,binds more tightly to hGlxI than to yGlxI,[9],about 7500 fold
same,Ki,[9]; [14],0.96 ± 0.06 nM
same,inhibitory activity on human placental GSH transferase,[11],no inhibitory activity
same,inhibitory activity on GSH peroxidase,[12],no inhibitory activity
N-(tri-beta-ala hydroxyethylamide ethylenediamine bis(hexanedioic acid O-carbonylethyl)S—(N-p-bromophenyl-N-hydroxy-carbamoyl)glutathione [polyBHG2-54],Ki,"[9]; competitive inhibition, read-out: Ki values, human GlxI",0.3 nM
"[CHG (β-ala)7]2suberate diamide [[CHG(β-Ala)n]2sub., n = 7]",Ki,[10],4100 ± 500 nM
same,Ki,[8],79 ± 8 nM
same,Ki,[9]; [14],0.97 ± 0.02 nM
